One assay addresses T1, AChE (Rattus norvegicus, UniProt P37136).
T1 construct: AChE (0.5 U/mg) was extracted from rat cortex; from tissue; host or cells: rat cortex
As to the kind of experiment: biochemical. To be noted: for inhibition at 50 µM: read-out: Inhibition % at 50 μM AChE. The protocol:
(§1) To measure in vitro AChE/BuChE activity, modified Ellman's method[27–30] was performed using a 96-well plate reader (BioTek ELx808). AChE (0.5 U/mg) was extracted from rat cortex while BuChE (3.4 U/mg) was obtained from human plasma. Each well contained 50 μl potassium phosphate buffer (KH2PO4/K2HPO4, 0.1 M, pH 8.0), 25 μl test compounds and 25 μl enzyme. […] They were pre-incubated for 60 min at 37 °C, and then 125 μl 5,5′-dithiobis-2-nitrobenzoic acid (DNTB, 3 mM in buffer) was added. […] A control experiment was performed under the same condition without any inhibitor and the blank contained buffer, water, DTNB and substrate. The described method was also performed for BuChE bioassay.

The target of a further assay is T2, BuChE (Homo sapiens, UniProt P06276).
T2 construct: BuChE (3.4 U/mg) was obtained from human plasma; from tissue; host or cells: human plasma
The assay can be described thus: biochemical. To be noted: for inhibition at 50 µM: read-out: Inhibition % at 50 μM BuChE. How it is done: as §1

[1] abbreviates: BuChE from human plasma, read-out: IC50 (μM) BuChE.
Setting [2] is: 50 μM compound, AChE extracted from rat cortex, pre-incubated 60 min at 37 °C.
Where [3] appears, read: 50 μM compound, BuChE from human plasma, pre-incubated 60 min at 37 °C.

Like-named read-outs stand apart in the source and are kept apart here.

T1 sequence (P37136 32-614): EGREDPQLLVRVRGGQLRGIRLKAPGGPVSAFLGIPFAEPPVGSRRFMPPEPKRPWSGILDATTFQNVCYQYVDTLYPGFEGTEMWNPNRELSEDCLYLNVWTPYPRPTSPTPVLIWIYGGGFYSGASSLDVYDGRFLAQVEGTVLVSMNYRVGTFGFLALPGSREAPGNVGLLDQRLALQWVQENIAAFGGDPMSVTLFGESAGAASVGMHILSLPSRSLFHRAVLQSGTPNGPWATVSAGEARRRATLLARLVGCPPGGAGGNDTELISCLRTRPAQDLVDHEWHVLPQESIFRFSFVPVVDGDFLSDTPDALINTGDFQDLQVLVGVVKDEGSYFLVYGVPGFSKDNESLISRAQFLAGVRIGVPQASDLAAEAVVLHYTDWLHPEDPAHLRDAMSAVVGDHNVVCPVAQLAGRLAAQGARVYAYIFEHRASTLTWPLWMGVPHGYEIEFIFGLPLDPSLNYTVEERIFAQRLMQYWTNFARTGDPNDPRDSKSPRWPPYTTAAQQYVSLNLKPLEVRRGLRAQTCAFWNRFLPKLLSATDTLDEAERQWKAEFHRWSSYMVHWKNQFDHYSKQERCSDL
T2 sequence (P06276 29-602): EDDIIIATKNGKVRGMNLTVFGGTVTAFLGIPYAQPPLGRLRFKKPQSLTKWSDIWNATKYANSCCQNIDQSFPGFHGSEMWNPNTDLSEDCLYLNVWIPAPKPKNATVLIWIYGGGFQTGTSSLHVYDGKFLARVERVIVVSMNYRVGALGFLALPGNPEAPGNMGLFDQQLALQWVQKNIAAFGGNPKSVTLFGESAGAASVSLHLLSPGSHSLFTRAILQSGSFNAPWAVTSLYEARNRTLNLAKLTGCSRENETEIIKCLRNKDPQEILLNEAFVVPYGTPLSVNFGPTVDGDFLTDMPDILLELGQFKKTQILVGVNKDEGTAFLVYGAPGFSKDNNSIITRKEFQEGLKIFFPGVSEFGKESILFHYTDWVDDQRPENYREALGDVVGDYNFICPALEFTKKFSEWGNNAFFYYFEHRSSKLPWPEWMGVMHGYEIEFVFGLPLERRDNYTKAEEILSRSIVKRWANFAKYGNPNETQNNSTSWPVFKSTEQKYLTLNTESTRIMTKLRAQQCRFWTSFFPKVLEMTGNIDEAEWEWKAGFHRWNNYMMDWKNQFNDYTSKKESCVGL

As usually defined, the IC50 is the concentration at which inhibition is half-maximal. For `COc1ccc(-c2coc3cc(OCCN4CCCCC4C)ccc3c2=O)cc1` (stereo not shown) [G], the IC50 at AChE (AChE extracted from rat cortex) came to 1.47 µM; on BuChE (setting [1]), 3.37 µM.
As usually defined, the inhibition is the drop in the measured response relative to a control, in per cent. On to `CC(C)NP(=O)(NC(C)C)OP(=O)(NC(C)C)NC(C)C` [Iso-OMPA, tetraisopropyl pyrophosphoramide, reference compound], for which the inhibition at 50 µM on BuChE was 94.3%.
As to `COc1ccc(-c2coc3cc(OCCN4CCCCC4)cc(O)c3c2=O)cc1` [compound 1, 5-Hydroxy-3-(4-mehtoxyphenyl)-7-(2-(piperidin-1-yl)ethoxy)-4H-chromen-4-one], the “Inhibition % at 50 μM AChE” value at AChE (setting [2]) stood at 71.10%. The IC50 came to 10.3 µM against AChE (AChE extracted from rat cortex) and 4.12 µM at BuChE (setting [1]). Also, the “Inhibition % at 50 μM BuChE” value on BuChE (setting [3]) came out at 95.74%.
For the compound `COc1ccc(-c2coc3cc(OCCCN4CCCCC4)ccc3c2=O)cc1` [compound 2, 3-(4-Methoxyphenyl)-7-(3-(piperidin-1-yl)propoxy)-4H-chromen-4-one], the inhibition at 50 µM came out at 28.3% at AChE (setting [2]) and 97% on BuChE (setting [3]). Besides, the IC50 on BuChE (setting [1]) was 23.2 µM.
Consider `COc1ccc(-c2coc3cc(OCCCCN4CCCCC4)ccc3c2=O)cc1` [compound 3, 3-(4-Methoxyphenyl)-7-(4-(piperidin-1-yl)butoxy)-4-H-chromen-4-one], for which, on AChE (setting [2]), the “Inhibition % at 50 μM AChE” value worked out at 85.65%. The values for the IC50 on AChE (AChE extracted from rat cortex) and on BuChE (setting [1]) were 46.4 µM and 11.1 µM, respectively. Besides, the “Inhibition % at 50 μM BuChE” value at BuChE (setting [3]) was found to be 98.11%.
`CCN(C)CCOc1ccc2c(=O)c(-c3ccc(OC)cc3)coc2c1` [compound 4, 7-(2-(Ethyl(methyl)amino)ethoxy)-3-(4-methoxyphenyl)-4H-chromen-4-one]: the inhibition at 50 µM at AChE (setting [2]) is 58.7%; on BuChE (setting [3]), 84.1%.
On the same counts, the results for `CCN(C)CCCOc1ccc2c(=O)c(-c3ccc(OC)cc3)coc2c1` [compound 5, 7-(3-(Ethyl(methyl)amino)propoxy)-3-(4-methoxyphenyl)-4H-chromen-4-one] are 25.4% and 91.3%.
`CCN(C)CCCCOc1ccc2c(=O)c(-c3ccc(OC)cc3)coc2c1` [compound 6, 7-(4-(Ethyl(methyl)amino)butoxy)-3-(4-methoxyphenyl)-4H-chromen-4-one]: the inhibition at 50 µM is 63.8% at AChE (setting [2]) and 94.8% at BuChE (setting [3]).
For `COc1ccc(-c2coc3cc(OCCNCCc4c[nH]c5ccc(OC)cc45)ccc3c2=O)cc1` [compound 7, 7-(2-((2-(5-Methoxy-1H-indol-3-yl)ethyl)amino)ethoxy)-3-(4-methoxyphenyl)-4H-chr-omen-4-one], at AChE (setting [2]), the “Inhibition % at 50 μM AChE” value worked out at 3.68%. The “Inhibition % at 50 μM BuChE” value at BuChE (setting [3]) is reported as 45.74%.
`COc1ccc(-c2coc3cc(OCCCNCCc4c[nH]c5ccc(OC)cc45)ccc3c2=O)cc1` [compound 8, 7-(3-((2-(5-Methoxy-1H-indol-3-yl)ethyl)amino)propoxy)-3-(4-methoxyphenyl)-4H-chromen-4-one]: the inhibition at 50 µM was determined as 2.42% at AChE (setting [2]) and 60.6% on BuChE (setting [3]). Besides, on BuChE (setting [1]), the IC50 worked out at 15.6 µM.
Regarding `COc1ccc(-c2coc3cc(OCCCCNCCc4c[nH]c5ccc(OC)cc45)ccc3c2=O)cc1` [compound 9, 7-(4((2-(5-Methoxy-1H-indol-3-yl)ethyl)amino)butoxy)-3-(4-methoxyphenyl)-4H-chromen-4-one], the inhibition at 50 µM at AChE (setting [2]) stood at 0.72%; at BuChE (setting [3]), 37.9%.
The matching figures for `COc1ccc(-c2coc3cc(OCCN(C)Cc4ccccc4)ccc3c2=O)cc1` [compound 10, 7-(2-(Benzyl(methyl)amino)ethoxy)-3-(4-methoxyphenyl)-4H-chromen-4-one]: 3.34% and 2.72%.
As to `COc1ccc(-c2coc3cc(OCCN(Cc4ccccc4)Cc4ccccc4)ccc3c2=O)cc1` [compound 11, 7-(2-(Dibenzylamino)ethoxy)-3-(4-methoxyphenyl)-4H-chromen-4-one], the inhibition at 50 µM is -6.27% at AChE (setting [2]) and -18.5% at BuChE (setting [3]).
In the case of `C#CCNCCOc1ccc2c(=O)c(-c3ccc(OC)cc3)coc2c1` [compound 12, 3-(4-Methoxyphenyl)-7-(2-(prop-2-yn-1-ylamino)ethoxy)-4H-chromen-4-one], the inhibition at 50 µM on AChE (setting [2]) is 5.47%; on BuChE (setting [3]), -16.9%.
For the compound `COc1ccc(-c2coc3cc(OCCNC45CC6C[C@@](C)(C4)C[C@](C)(C6)C5)ccc3c2=O)cc1` [compound 13, 7-(2-(((3 R,5 S,7r)-3,5-dimethyladamantan-1-yl)amino)ethoxy)-3-(4-methoxyphenyl)-4H-chromen-4-one], the “Inhibition % at 50 μM AChE” value on AChE (setting [2]) is 17.61%. The “Inhibition % at 50 μM BuChE” value at BuChE (setting [3]) is recorded as −6.62%.
For `O=c1c(-c2ccc(O)cc2)coc2cc(OCCN3CCCCC3)ccc12` [compound 14, 3-(4-Hydroxyphenyl)-7-(2-(piperidin-1-yl)ethoxy)-4H-chromen-4-one], the values for the inhibition at 50 µM on AChE (setting [2]) and at BuChE (setting [3]) were 79.4% and 99.9%, respectively. Further, the results for the IC50 against AChE (AChE extracted from rat cortex) and on BuChE (setting [1]) were 9.75 µM and 7.66 µM, respectively.
With `O=c1c(-c2ccc(O)cc2)coc2cc(OCCN3CCCC3)ccc12` [compound 15, 3-(4-Hyroxyphenyl)-7-(2-(pyrrolidin-1-yl)ethoxy)-4H-chromen-4-one], at AChE (setting [2]), the “Inhibition % at 50 μM AChE” value is given as 75.22%. Also, on BuChE (setting [3]), the “Inhibition % at 50 μM BuChE” value is reported as 99.88%. Besides, at BuChE (setting [1]), the IC50 was 7.19 µM.
Consider `O=c1c(-c2ccc(OCCN3CCCCC3)cc2)coc2cc(OCCN3CCCCC3)ccc12` [compound 16, 7-(2-(Piperidin-1-yl)ethoxy)-3-(4-(2-(piperidin-1-yl)ethoxy)phenyl)-4H-chrom en-4-one], for which the inhibition at 50 µM on AChE (setting [2]) stood at 100%; at BuChE (setting [3]) it was 99.7%. For the same compound, the IC50 came out at 4.6 µM on AChE (AChE extracted from rat cortex) and 5.92 µM at BuChE (setting [1]).
As to `COc1ccc(-c2coc3cc(OCC(=O)N4CCCCC4)ccc3c2=O)cc1` [compound 17, 3-(4-Methoxyphenyl)-7-(2-oxo-2-(piperidin-1-yl)ethoxy)-4H-chromen4-one], the inhibition at 50 µM on AChE (setting [2]) is 0.54%; on BuChE (setting [3]), -2.83%.
On the same counts, the results for `COc1ccc(-c2coc3cc(OCCC(=O)N4CCCCC4)ccc3c2=O)cc1` [compound 18, 3-(4-Methoxyphenyl)-7-(3-oxo-3-(piperidin-1-yl)propoxy)-4H-chromen-4-one] are -2.36% and 5.59%.
In the case of `COc1ccc(-c2coc3cc(OCCOC(=O)N4CCCCC4)ccc3c2=O)cc1` [compound 19, 2-((3-(4-Methoxyphenyl)-4-oxo-4H-chromen-7-yl)oxy)ethyl piperidine-1-carboxylate], the inhibition at 50 µM at AChE is -11.6%. Besides, on BuChE, the IC50 came to 9.59 µM and the inhibition at 50 µM amounted to 53%.
Take `C#CCNC(=O)OCCOc1ccc2c(=O)c(-c3ccc(OC)cc3)coc2c1` [compound 20, 2-((3-(4-Methoxyphenyl)-4-oxo-4H-chromen-7-yl)oxy)ethyl prop-2-yn-1-ylc-arbamate]: the “Inhibition % at 50 μM AChE” value on AChE (setting [2]) is −4.84%. Besides, on BuChE (setting [3]), the “Inhibition % at 50 μM BuChE” value is reported as −5.49%.

For the origin of these results see article PMC6446070, “Discovery of novel isoflavone derivatives as AChE/BuChE dual-targeted inhibitors: synthesis, biological evaluation and molecular modelling” (Journal of Enzyme Inhibition and Medicinal Chemistry, 2017).
